Data taken from patent US12595251B2, “Amidines and amidine analogs for the treatment of bacterial infections and potentiation antibiotics” (GEORGIA STATE UNIVERSITY RESEARCH FOUNDATION, INC., priority 2018, dated 2026).
Counter-ions that a name gives are not always drawn.

Columns and labels:
E. coli = assay: MIC of compounds against E. coli (OD600, 48 h); assay type: cell-based; conditions: Escherichia coli; for inhibition at 12 µM: compound alone at 12 μM, read-out: Growth inhibition of E. coli at 12 μM; for inhibition at 12 µM / MIC: NA=no activity; for inhibition at 25 µM: read-out: Growth inhibition of E. coli at 25 μM, compound alone at 25 μM, NA=no activity; for inhibition at 50 µM: read-out: Growth inhibition of E. coli at 50 μM, compound alone at 50 μM, NA=no activity; for MIC: MIC = 90% growth inhibition, compound alone
B. subtilis = assay: MIC of compounds against B. subtilis (OD600, 48 h); assay type: cell-based; conditions: Bacillus subtilis; for inhibition at 3 µM: read-out: Growth inhibition of B. subtilis at 3 μM, compound alone at 3 μM, NA=no activity; for inhibition at 6 µM: read-out: Growth inhibition of B. subtilis at 6 μM, compound alone at 6 μM, NA=no activity; for inhibition at 12 µM: compound alone at 12 μM, read-out: Growth inhibition of B. subtilis at 12 μM; for inhibition at 2 µM: read-out: Growth inhibition of B. subtilis at 2 μM, compound alone at 2 μM; for MIC: MIC = 90% growth inhibition, compound alone; for inhibition at 25 µM: read-out: Growth inhibition of B. subtilis at 25 μM, compound alone at 25 μM; for inhibition at 12.5 µM: compound alone at 12.5 μM, NA=no activity, read-out: Growth inhibition of B. subtilis at 12.5 μM; for inhibition at 1 µM: read-out: Growth inhibition of B. subtilis at 1 μM, compound alone at 1 μM
Procedure: Bacteria were then cultured with varying concentration of the compounds shown below for 48 hours, and then bacterial density was measured based on OD600. The procedure to determine the MIC for each compound against B. subtilis was the same except that the bacteria was cultured in nutrient broth. The MIC of each compound against B. subtilis is shown in Table 2 (NA=no activity, --=not tested).

wild-type E. coli = assay: Sensitization of wild-type E. coli toward antibiotics (MIC of antibiotic with/without sensitizer); assay type: cell-based, Escherichia coli; conditions: compound at 5 μg/ml; strain and antibiotic not stated in Table 8
Procedure: Bacteria were cultured with the antibiotic at various concentrations in the presence or absence of bacterial sensitizer for 24 hours at 37° C. Bacterial growth density was determined by measuring OD600 (absorbance measured at a wavelength of 600 nm). […]
The formula for calculating FIC is shown below: […]

SMILES | inhibition at 12 µM (E. coli) | inhibition at 6 µM (B. subtilis) | inhibition at 25 µM (E. coli) | inhibition at 12 µM (B. subtilis) | other results
Cc1cc(CSc2ccc(C(=N)N)cc2)cc(CSc2ccc(C(=N)N)cc2)c1 [drawing 791] | 15% | 40% |  |  | inhibition at 3 µM (B. subtilis): 10%
c1cc(COc2ccc(C3=NCCN3)cc2)cc(COc2ccc(C3=NCCN3)cc2)c1 [drawing 762] | 25% |  | 50% |  | 
Cc1cc(CCc2ccc(C(=N)N)cc2)cc(CCc2ccc(C(=N)N)cc2)c1 [drawing 782] | 10% | 30% | 20% | 80% | 
N=C(N)c1ccc(OCc2cccc(COc3ccc(C(=N)N)cc3)c2)cc1 [drawing 773] | 35% | 60% | 50% | 70% | inhibition at 50 µM (E. coli): 60%; inhibition at 2 µM (B. subtilis): 30%
Cc1cc(COc2ccc(CN)cc2)cc(COc2ccc(CN)cc2)c1 [drawing 780] | 10% |  | 30% | 10% | 
CC(C)(C)c1cc(COc2ccc(C(=N)N)cc2F)cc(COc2ccc(C(=N)N)cc2F)c1 [Compound E-15, 1,3-bis {[4-amidino-2-fluoro]-phenoxymethyl]}-5-(tert-butyl)benzene dihydrochloride] |  |  |  |  | Sensitization fold (wild-type E. coli): 256
CC(C)NC(=N)c1ccc(OCc2cccc(COc3ccc(C(=N)NC(C)C)cc3F)c2F)c(F)c1 [drawing 785] | 40% | 60% | 50% | 70% | 
CCCCc1cc(OCc2ccc(C(=N)N)cc2)cc(OCc2ccc(C(=N)N)cc2)c1 [drawing 796] |  |  |  |  | inhibition at 10 µM (E. coli; read-out: Growth inhibition of E. coli at 10 μM, compound alone at 10 μM): 20%
CC(C)NC(=N)c1ccc(OCc2cccc(COc3ccc(C(=N)NC(C)C)cc3)c2F)cc1 [drawing 784] | 60% | 70% | 80% | 80% | 
Cc1cc(COc2ccc(C(=N)N)cc2F)cc(COc2ccc(C(=N)N)cc2F)c1 [drawing 794] |  |  | 30% |  | 
Cc1cc(COc2ccc(C3=CCCCN3)cc2)cc(COc2ccc(C3=NCCCN3)cc2)c1 |  |  |  |  | MIC (B. subtilis): 50 µM; inhibition at 25 µM (B. subtilis): 50%
N=C(N)c1ccc2nc(-c3ccc(OCC(F)(F)C(F)(F)COc4ccc(-c5nc6ccc(C(=N)N)cc6[nH]5)cc4)cc3)[nH]c2c1 [drawing 753] |  |  | 50% |  | inhibition at 12.5 µM (B. subtilis): 10%; inhibition at 25 µM (B. subtilis): 20%
N=C(N)c1ccc(Oc2ccc(C(=N)N)cc2)cc1 [drawing 755] |  |  |  |  | inhibition at 12.5 µM (B. subtilis): 60%; inhibition at 25 µM (B. subtilis): 70%
COc1cc(C(=N)N)ccc1OCc1cccc(COc2ccc(C(=N)N)cc2OC)c1F [drawing 769] | 30% | 25% | 50% | 50% | 
N=C(N)c1ccc(OCOc2ccc(C(=N)N)cc2)cc1 [drawing 777] |  | 10% |  |  | inhibition at 12.5 µM (B. subtilis): 80%
Fc1c(COc2ccc(C3=NCCN3)cc2)cccc1COc1ccc(C2=NCCN2)cc1 [drawing 763] |  |  | 20% |  | 
CO/N=C(\N)c1ccc(OCc2cc(C)cc(COc3ccc(/C(N)=N\OC)cc3)c2)cc1 [drawing 795] |  |  |  |  | MIC (E. coli): 100 µM
Cc1cc(COc2ccc(C(=N)N)cc2F)cc(COc2ccc(C(=N)N)cc2F)c1 [Compound E-18, 1,3-Bis {[4-amidino-2-fluoro)-phenoxymethyl]}-5-methyl-benzene dihydrochloride] |  |  |  |  | Sensitization fold (wild-type E. coli): 32
N=C(N)c1ccc(OCc2cc(COc3ccc(C(=N)N)cc3)cc(COc3ccc(C(=N)N)cc3)c2)cc1 [drawing 781] | 40% | 80% | 60% |  | MIC (B. subtilis): 12 µM
Cc1cc(COc2ccc(C(=N)NC(C)C)cc2)cc(COc2ccc(C(=N)NC(C)C)cc2)c1 [drawing 767] | 40% |  | 50% |  | MIC (B. subtilis): 6 µM; inhibition at 1 µM (B. subtilis): 60%; inhibition at 2 µM (B. subtilis): 70%
COc1cc(C(=N)N)ccc1OCc1cc(C)cc(COc2ccc(C(=N)N)cc2OC)c1 [drawing 768] | 25% |  | 50% |  | MIC (B. subtilis): 6 µM; inhibition at 1 µM (B. subtilis): 10%; inhibition at 2 µM (B. subtilis): 50%
Cc1cc(COc2cccc(C(=N)N)c2)cc(COc2cccc(C(=N)N)c2)c1 [drawing 790] |  |  |  |  | inhibition at 50 µM (E. coli): 80%; MIC (B. subtilis): 50 µM

SMILES | inhibition at 12 µM (E. coli) | inhibition at 6 µM (B. subtilis) | inhibition at 25 µM (E. coli) | inhibition at 12 µM (B. subtilis) | other results
N=C(N)c1ccc(OCCCCCCOc2ccc(C(=N)N)cc2)cc1 [drawing 778] | 40% | 40% | 70% |  | MIC (B. subtilis): 12 µM; inhibition at 2 µM (B. subtilis): 30%
Cc1ccc(COc2ccc(C(=N)N)cc2)cc1COc1ccc(C(=N)N)cc1 [drawing 793] |  | 40% |  | 60% | 
Cc1cc(OCc2ccc(C(=N)N)cc2)cc(OCc2ccc(C(=N)N)cc2)c1 [drawing 783] |  |  | 30% | 20% | 
N=C(N)c1ccc2[nH]c(-c3ccc(-c4ccc(-c5ccc(-c6ccc(-c7nc8cc(C(=N)N)ccc8[nH]7)cc6)s5)s4)cc3)nc2c1 [drawing 772] |  | 20% |  | 20% | inhibition at 50 µM (E. coli): 10%
CC(C)(C)c1cc(COc2ccc(C(=N)N)cc2)cc(COc2ccc(C(=N)N)cc2)c1 [drawing 770] | 40% |  | 90% |  | MIC (B. subtilis): 6 µM; inhibition at 1 µM (B. subtilis): 10%; inhibition at 2 µM (B. subtilis): 70%
N=C(N)c1ccc(OCc2cccc(COc3ccc(C(=N)N)cc3)n2)cc1 [drawing 776] |  |  |  |  | inhibition at 50 µM (E. coli): 50%; MIC (B. subtilis): 12.5 µM; inhibition at 2 µM (B. subtilis): 40%
N=C(N)c1ccc(OCc2cccc(COc3ccc(C(=N)N)cc3F)c2F)c(F)c1 [Compound A-1, 4,4′-(((2-Fluoro-1,3-phenylene)bis(methylene))bis(oxy))bis(3-fluorobenzimidamide) Dihydrochloride] |  |  |  |  | Sensitization fold (wild-type E. coli): 8
Cc1cc(-c2nc3cc(C(=N)N)ccc3n2C)sc1-c1ccc(OCCCCOc2ccc(C(=N)N)cc2)cc1 [drawing 775] |  |  | 30% | 70% | 
Cc1cc(COc2ccc(C(=N)N)cc2)cc(COc2ccc(C(=N)N)cc2)c1 [drawing 761] | 15% |  | 25% | 20% | inhibition at 25 µM (B. subtilis): 50%
Cc1cc(CSc2ccc(C3=NCCN3)cc2)cc(CSc2ccc(C3=NCCN3)cc2)c1 [drawing 792] |  |  |  |  | inhibition at 12.5 µM (E. coli; compound alone at 12.5 μM, read-out: Growth inhibition of E. coli at 12.5 μM): 10%
CCCNC(=N)c1ccc(COc2cc(C)cc(OCc3ccc(C(=N)NCCC)cc3)c2)cc1 [drawing 786] |  |  |  |  | MIC (B. subtilis): 50 µM; inhibition at 12.5 µM (B. subtilis): 30%; inhibition at 25 µM (B. subtilis): 50%
N=C(N)c1ccc(OCCCCCCCCOc2ccc(C(=N)N)cc2)cc1 [drawing 774] |  |  |  |  | MIC (E. coli): 25 µM
COc1cc(C(=N)N)ccc1OCc1cc(COc2ccc(C(=N)N)cc2OC)cc(C(C)(C)C)c1 [drawing 788] |  | 40% |  |  | inhibition at 50 µM (E. coli): 80%; inhibition at 3 µM (B. subtilis): 30%
N=C(N)c1ccc(OCc2ccc(COc3ccc(C(=N)N)cc3)cc2)cc1 [drawing 766] | 10% | 60% | 20% | 70% | 
N=C(N)c1ccc(OCc2cccc(COc3ccc(C(=N)N)cc3F)c2F)c(F)c1 [drawing 757] | 40% |  | 70% |  | inhibition at 50 µM (E. coli): 90%; MIC (B. subtilis): 12.5 µM; inhibition at 2 µM (B. subtilis): 10%
N=C(N)c1ccc(OCc2cccc(COc3ccc(C(=N)N)cc3)c2F)cc1 [drawing 758] | 80% | 50% |  | 60% | inhibition at 6 µM (E. coli; read-out: Growth inhibition of E. coli at 6 μM, compound alone at 6 μM): 60%
CC(C)(C)c1cc(COc2ccc(C(=N)N)cc2F)cc(COc2ccc(C(=N)N)cc2F)c1 [drawing 789] |  |  |  |  | MIC (E. coli): 50 µM; MIC (B. subtilis): 50 µM
Cn1c(-c2ccc(-c3ccc(C(=N)N)cc3)s2)nc2cc(-c3ccc(C(=N)N)cc3)ccc21 [drawing 771] |  | 50% | 15% |  | MIC (B. subtilis): 12 µM; inhibition at 2 µM (B. subtilis): 20%
Cc1cc(COc2ccc(C3=NCCN3)cc2)cc(COc2ccc(C3=NCCN3)cc2)c1 [drawing 779] | 10% | 20% | 25% | 25% | 
Cn1c(CCc2nc3cc(C(=N)N)ccc3n2C)nc2cc(C(=N)N)ccc21 [drawing 759] |  |  |  |  | inhibition at 50 µM (E. coli): 10%; inhibition at 12.5 µM (B. subtilis): 20%; inhibition at 25 µM (B. subtilis): 70%
Cn1c(CCCCc2nc3ccc(C(=N)N)cc3n2C)nc2ccc(C(=N)N)cc21 [drawing 754] |  |  |  |  | inhibition at 25 µM (B. subtilis): 20%
N=C(N)c1ccc(OCc2ccc(-c3ccc(C(=N)N)cc3)cc2)cc1 [drawing 756] |  |  | 50% |  | MIC (B. subtilis): 12.5 µM; inhibition at 2 µM (B. subtilis): 30%
